US5556970A, “Lanolin fatty acids, a method for their fractionation, cosmetics and drugs for external use” (priority 1992, dated 1996)

How the values were obtained:
[1] = interaction with water (water solubility); format: physicochemical; settings: 2 g in 100 ml distilled water
Method: For this test, 2 g of each sample was dissolved by heating in a beaker, 100 ml of distilled water at 70° C. was added and the mixture was stirred at the constant temperature of 70° C. for about 1 hour, after which it was allowed to cool and examined.

[2] = system: atopic dermatitis, ichthyosis and age-associated wrinkles; settings: in vivo; cited from earlier work

SMILES	Stability (in words) [1]	Condition of aqueous solution ([1]; 70° C., 1 hour, cooled)	effect in skin conditions [2]
CCCCCCCCCCCCCCCCCC(=O)OCC(O)CO (centres unmarked) [GLYMSA, Glycerol monostearate]	Phase separation on standing	Emulsion	–
O=C(O)CC(O)(CC(=O)O)C(=O)O [citric acid]	–	–	effective in atopic dermatitis, ichthyosis and reduction of age-associated wrinkles
CC(O)C(=O)O (centres unmarked) [lactic acid]	–	–	effective in atopic dermatitis, ichthyosis and reduction of age-associated wrinkles
O=C(O)C(O)C(O)C(=O)O (centres unmarked) [tartaric acid]	–	–	effective in atopic dermatitis, ichthyosis and reduction of age-associated wrinkles
